Measured values published in patent US8980888B2, “Pyrazole derivative” (Mochida Pharmaceutical Co., Ltd., priority 2013, dated 2015).

biological target: T1, Human PDE10 (Homo sapiens, UniProt Q9Y233); assay: Human PDE10 inhibitory effect (IMAP TR-FRET enzyme inhibition assay); type: biochemical; details: PDE10 inhibitory activity, cAMP substrate
T1 construct: purchased BPA Bioscience (so in the source)
Experimental: (Evaluation of Enzyme Inhibitory Activity: Human PDE10 Inhibitory Effect)
IMAP TR-FRET Phosphodiersterase Evaluation Assay Kit (Molecular Device) was used for the measurement. Ten μL of a diluted test compound having each concentration and 5 μL of the enzyme PDE10 (BPA Bioscience) that had been diluted to 2 ng/mL with 1×IMAP Reaction Buffer (prepared with 5× included with the kit, 10 mM Tris-HCl, pH=7.2, 10 mM MgCl2, 0.05% NaN3, and 0.1% BSA) containing 0.1% BSA were added to a 384-well plate (Corning). The obtained mixture was then pre-incubated at room temperature for 5 minutes. Thereafter, 5 μL of cAMP substrate solution which was included with the kit and diluted to 400 nM with 1×IMAP Reaction Buffer containing 0.1% BSA, was added to the reaction solution, and the obtained mixture was reacted at room temperature for 60 minutes. Thereafter, 60 μL of an IMAP TR-FRET Binding solution included with the kit was further added to the reaction solution, and the obtained mixture was then left for 3 hours or more. Subsequently, using ARVO SX (PerkinElmer), the fluorescent intensity of Terbium (Emission=490 nm) and TR-FRET (Emission=520 nm) in the reaction solution were measured at an excitation wavelength of 340 nm, so as to calculate the amount of the generated 5′-AMP. The count of a well to which a solvent had been added instead of the test compound was set at 0%, and the count of a well to which the enzyme PDE10 had not been added was set at 100%. Thus, the inhibitory activity of each test compound was calculated.
The PDE10 inhibitory activity of the test compound was indicated with an IC50 value. […] The test compounds are shown in Table 3 (Table 3-1 and Table 3-2).

T1 sequence (Q9Y233 whole entry): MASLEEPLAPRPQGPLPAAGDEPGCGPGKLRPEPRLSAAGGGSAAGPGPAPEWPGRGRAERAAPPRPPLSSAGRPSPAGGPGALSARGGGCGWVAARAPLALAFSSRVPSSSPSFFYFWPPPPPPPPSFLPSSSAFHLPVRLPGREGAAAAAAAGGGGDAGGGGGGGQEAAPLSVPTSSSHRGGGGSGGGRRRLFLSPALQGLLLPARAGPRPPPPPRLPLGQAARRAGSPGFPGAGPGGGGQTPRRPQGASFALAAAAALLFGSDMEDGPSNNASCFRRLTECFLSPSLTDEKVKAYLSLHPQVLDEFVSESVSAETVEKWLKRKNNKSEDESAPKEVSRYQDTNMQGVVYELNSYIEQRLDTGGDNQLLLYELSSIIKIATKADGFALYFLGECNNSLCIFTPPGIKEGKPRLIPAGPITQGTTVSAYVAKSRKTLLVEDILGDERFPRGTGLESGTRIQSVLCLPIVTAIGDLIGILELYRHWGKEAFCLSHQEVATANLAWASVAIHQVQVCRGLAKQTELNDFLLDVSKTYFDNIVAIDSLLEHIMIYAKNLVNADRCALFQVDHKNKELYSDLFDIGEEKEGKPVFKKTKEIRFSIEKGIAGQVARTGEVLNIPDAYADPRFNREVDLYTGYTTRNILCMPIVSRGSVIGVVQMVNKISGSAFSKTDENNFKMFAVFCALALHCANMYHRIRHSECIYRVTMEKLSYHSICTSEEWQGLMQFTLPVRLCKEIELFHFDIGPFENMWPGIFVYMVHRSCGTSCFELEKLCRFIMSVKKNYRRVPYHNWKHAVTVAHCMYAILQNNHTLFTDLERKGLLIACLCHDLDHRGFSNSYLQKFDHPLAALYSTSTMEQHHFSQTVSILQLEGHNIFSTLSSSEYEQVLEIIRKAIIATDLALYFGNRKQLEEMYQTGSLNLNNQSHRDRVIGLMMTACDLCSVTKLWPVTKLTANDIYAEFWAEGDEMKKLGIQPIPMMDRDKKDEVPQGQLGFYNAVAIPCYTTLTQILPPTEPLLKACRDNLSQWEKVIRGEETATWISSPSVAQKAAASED

Row | IC50 [nM] | SMILES
1 | 5 to 100 | CCc1nnc(-c2cnn(C)c2C(=O)NC2CCn3nc(-c4ccccc4)nc3C2)s1 (stereo not drawn) [Example 5.12, 4-(5-ethyl-1,3,4-thiadiazol-2-yl)-1-methyl-N-(2-phenyl-5,6,7,8-tetrahydro-[1,2,4]triazolo[1,5-a]pyridin-7-yl)-1H-pyrazole-5-carboxamide]
2 | 5 to 100 | Cc1ccnc(-c2cnn(C)c2C(=O)NC2CCn3cc(-c4cccc(F)c4)nc3C2)n1 (stereo not drawn) [Example 2.23, N-(2-(3-fluorophenyl)-5,6,7,8-tetrahydroimidazo[1,2-a]pyridin-7-yl)-1-methyl-4-(4-methylpyrimidin-2-yl)-1H-pyrazole-5-carboxamide]
3 | 5 to 100 | Cn1ncc(-c2nc(C(F)F)c(C3CC3)s2)c1C(=O)NC1CCn2nc(-c3cccc(F)c3)nc2C1 (stereo not drawn) [Example 5.42, 4-(5-cyclopropyl-4-(difluoromethyl)thiazol-2-yl)-N-(2-(3-fluorophenyl)-5,6,7,8-tetrahydro-[1,2,4]triazolo[1,5-a]pyridin-7-yl)-1-methyl-1H-pyrazole-5-carboxamide]
4 | 5 to 100 | Cn1ncc(-c2nc(C(F)(F)F)cs2)c1C(=O)NC1CCn2nc(-c3ccccc3)nc2C1 (stereo not drawn) [Example 5.9]
5 | 5 to 100 | Cn1ncc(-c2nc(C(F)F)c(C3CC3)s2)c1C(=O)NC1CCn2nc(-c3ccc(F)cc3)nc2C1 (stereo not drawn) [Example 5.35, 4-(5-cyclopropyl-4-(difluoromethyl)thiazol-2-yl)-N-(2-(4-fluorophenyl)-5,6,7,8-tetrahydro-[1,2,4]triazolo[1,5-a]pyridin-7-yl)-1-methyl-1H-pyrazole-5-carboxamide]
6 | 5 to 100 | Cc1ccc(-c2cnn(C)c2C(=O)NC2CCn3nc(-c4ccccc4)nc3C2)nc1 (stereo not drawn) [Example 5.26, 1-methyl-4-(5-methylpyridin-2-yl)-N-(2-phenyl-5,6,7,8-tetrahydro-[1,2,4]triazolo[1,5-a]pyridin-7-yl)-1H-pyrazole-5-carboxamide]
7 | < 5 | Cn1ncc(-c2cccc(C(F)(F)F)n2)c1C(=O)Nc1cc2nc(-c3ccccc3)nn2cc1F [Example 3.10, N-(6-fluoro-2-phenyl-[1,2,4]triazolo[1,5-a]pyridin-7-yl)-1-methyl-4-(6-(trifluoromethyl)pyridin-2-yl)-1H-pyrazole-5-carboxamide]
8 | 5 to 100 | C[C@@H]1CN(c2nc3cc(NC(=O)c4c(-c5nc(C(F)F)c(Cl)s5)cnn4C)ccn3n2)C[C@H](C)O1 [Example 4.36, 4-(5-chloro-4-(difluoromethyl)thiazol-2-yl)-N-(2-((2S,6R)-2,6-dimethylmorpholino)-[1,2,4]triazolo[1,5-a]pyridin-7-yl)-1-methyl-1H-pyrazole-5-carboxamide]
9 | < 5 | C[C@H]1CCCN1c1nc2cc(NC(=O)c3c(-c4nc(C(F)F)cs4)cnn3C)ccn2n1 [Example 4.1, (S)-4-(4-(difluoromethyl)thiazol-2-yl)-1-methyl-N-(2-(2-methylpyrrolidin-1-yl)-[1,2,4]triazolo[1,5-a]pyridin-7-yl)-1H-pyrazole-5-carboxamide]
10 | < 5 | Cc1cc(-c2cnn(C)c2C(=O)Nc2cc3nc(-c4ccccc4)nn3cc2F)nc(C)n1 [Example 3.30, 4-(2,6-dimethylpyrimidin-4-yl)-N-(6-fluoro-2-phenyl-[1,2,4]triazolo[1,5-a]pyridin-7-yl)-1-methyl-1H-pyrazole-5-carboxamide]
11 | < 5 | Cc1csc(-c2cnn(C)c2C(=O)NC2CCn3cc(-c4ccccc4)nc3C2)n1 (stereo not drawn) [Example 2.1, 1-methyl-4-(4-methylthiazol-2-yl)-N-(2-phenyl-5,6,7,8-tetrahydroimidazo[1,2-a]pyridin-7-yl)-1H-pyrazole-5-carboxamide]
12 | 5 to 100 | Cn1ncc(-c2nc(C#N)cs2)c1C(=O)NC1CCn2nc(-c3ccc(F)cc3)nc2C1 (stereo not drawn) [Example 5.41, 4-(4-cyanothiazol-2-yl)-N-(2-(4-fluorophenyl)-5,6,7,8-tetrahydro-[1,2,4]triazolo[1,5-a]pyridin-7-yl)-1-methyl-1H-pyrazole-5-carboxamide]
